Test system: 327498-153-R-J2-PDC complex spheroid growth, % test/control
Test: Anticancer human tumor 327498-153-R-J2-PDC patient-derived uterine carcinosarcoma cell line growth inhibition [Asc]
Details: for IC50: curve of first compound; for viability, T/C: stronger effect = lower value
Description: Multicellular complex tumor spheroid response to apoptosis pathway targeting inhibitors Alrizomadlin, Pelcitoclax, and Dasminapant in combination with a variety of drugs and investigational agents in selected tumor cell lines
The MDM2 inhibitor alrizomadlin, the Bcl-2/Bcl-xL inhibitor pelcitoclax, and the IAPs inhibitor dasminapant were evaluated both individually and in combination with standard of care and investigational anticancer small molecules within a complex spheroid model of solid tumors. . Complex spheroids include a stromal component modeled by human endothelial cells (HUVEC) and fibroblasts modeled by human mesenchymal stem cells (MSCs). The concentration ranges selected for each drug and investigational agent were based upon clinically achievable concentrations if the clinical Cmax of the agent was known.
Compounds. The drugs and investigational agents: alrizomadlin (APG-115; NSC831270), pelcitoclax (APG-1252; NSC835773), dasminapant (APG-1387;NSC834197), TAK-243 (NSC785004), copanlisib (NSC809693), olaparib (NSC753686), talazoparib (NSC767125), cobimetinib (NSC 768068), eltanexor (KPT-8602, NSC 794443), abemaciclib (NSC 768073), sotorasib (NSC818433), adagrasib (NSC 831453), MRTX-1133 (NSC 836407), Iadademestat (ORY1001, NSC 806812), and RMC-4630 (NSC839698), were obtained from the NCI Developmental Therapeutics Program Chemical Repository. The FDA-approved anticancer drug set is available from the Developmental Therapeutics Program at https://dtp.cancer.gov/organization/dscb/obtaining/available plates.htm. […] The stock solutions were prepared in dimethyl sulfoxide (DMSO, Sigma-Aldrich, St. Louis, MO, cat. D2650) at 800-fold the tested concentration and stored at -70 degrees C prior to their use. All drugs and investigational agents were tested over a range starting from a high concentration at or near the clinical Cmax and decreasing in half-log increments. If the clinical Cmax for an agent had not been determined, the highest concentration tested was 10 microM.
The patient-derived cancer (PDC) cell lines include five colon adenocarcinomas: 186277-243-T-J2-PDC, 616215-338-R-J1-PDC, 439559-082-T-J2-PDC, 463943-066-T-J2-PDC, and 519858-162-T-J1-PDC; three pancreatic carcinomas: 323965-272-R-J2-PDC, 521955-158-R6-J3-PDC, and 521955-158-R2-J5-PDC; two uterine sarcomas: 327498-152-R-J2-PDC and 993429-296-R-J1-PDC; two rhabdomyosarcomas: 755483-174-R-J1-PDC and 772245-204-R-J1-PDC; two soft tissue sarcomas: 126254-015-R-J1-PDC and 494315-158-R-J1-PDC; two malignant fibrous histiocytomas: 317291-083-R-J1-PDC and 596521-263-R-J1-PDC; two breast carcinomas: 171881-019-R-J1-PDC and 885512-296-R-J2-PDC; and one ovarian carcinoma: 6556581-035-R-J-PDC were obtained from the NCI PDMR, (https://pdmr.cancer.gov). The established cell lines HSSY-2 synovial sarcoma (RRID:CVCL 8719), SYO-1 synovial sarcoma (RRID:CVCL_7146), MPNST malignant peripheral neural sheath tumor were obtained from the Sloan Kettering Institute. The following established cell lines were purchased from the American Type Culture Collection (ATCC, Manassas, VA), Sor the received from the NCI repository:, PANC-1 pancreatic carcinoma (CRL-1469, RRID:CVCL_0480), OVCAR-5 ovarian carcinoma (RRID:CVCL_1628), OVCAR-8 ovarian carcinoma (RRID:CVCL_1629), , MCF-7 breast carcinoma (CRL-12584, RRID:CVCL_0031), MDA-MB-231 breast carcinoma (CRL-12532, RRID:CVCL_0062), NCI-H1876 small cell lung carcinoma (CRL-5902, RRID:CVCL_1503), NCI-H510A small cell lung carcinoma (HTB-184, RRID:CVCL_1565), NCI-H1417 (CRL-5869, RRID:CVCL_1469), and NCI-H196 small cell lung carcinoma (CRL-5823, RRID:CVCL_1509). Dr. Peter Houghton (Greehey Children's Cancer Research Institute, University of Texas Health Science Center, San Antonio, TX) provided Rh-18 rhabdomyosarcoma (RRID:CVCL_1659). Pooled donor human umbilical vein endothelial cells (HUVEC, Lonza, cat. CC-2519) and human mesenchymal stem cells (hMSC, Lonza, cat. PT-2501) were purchased from Lonza (Walkersville, MD).
Cell Culture. […]

[1] = second compound 0.03 µM, first compound 0.00316 µM
[2] = second compound 0.03 µM, first compound 0.01 µM
[3] = second compound 0.03 µM, first compound 0.0316 µM
[4] = second compound 0.03 µM, first compound 0.1 µM
[5] = second compound 0.03 µM, first compound 0.316 µM
[6] = second compound 0.03 µM, first compound 1 µM
[7] = second compound 0.0949 µM, first compound 0.00316 µM
[8] = second compound 0.0949 µM, first compound 0.01 µM
[9] = second compound 0.0949 µM, first compound 0.0316 µM
[10] = second compound 0.0949 µM, first compound 0.1 µM
[11] = second compound 0.0949 µM, first compound 0.316 µM
[12] = second compound 0.0949 µM, first compound 1 µM
[13] = second compound 0.3 µM, first compound 0.00316 µM
[14] = second compound 0.3 µM, first compound 0.01 µM
[15] = second compound 0.3 µM, first compound 0.0316 µM
[16] = second compound 0.3 µM, first compound 0.1 µM
[17] = second compound 0.3 µM, first compound 0.316 µM
[18] = second compound 0.3 µM, first compound 1 µM
[19] = second compound 0.949 µM, first compound 0.00316 µM
[20] = second compound 0.949 µM, first compound 0.01 µM
[21] = second compound 0.949 µM, first compound 0.0316 µM
[22] = second compound 0.949 µM, first compound 0.1 µM
[23] = second compound 0.949 µM, first compound 0.316 µM
[24] = second compound 0.949 µM, first compound 1 µM
[25] = second compound 3 µM, first compound 0.00316 µM
[26] = second compound 3 µM, first compound 0.01 µM
[27] = second compound 3 µM, first compound 0.0316 µM
[28] = second compound 3 µM, first compound 0.1 µM
[29] = second compound 3 µM, first compound 0.316 µM
[30] = second compound 3 µM, first compound 1 µM
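Note: spheroids exposed to compound for 7 days after 3 days of growth.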
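Throughout, for viability, T/C: 100% = DMSO vehicle control wells.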

SMILES	IC50 (second compound 0.03 µM) [nM]	IC50 (second compound 0.0949 µM) [nM]	IC50 (second compound 0.3 µM) [nM]	IC50 (second compound 0.949 µM) [nM]	IC50 (second compound 3 µM) [nM]	viability, T/C [1] [%]	viability, T/C [2] [%]	viability, T/C [3] [%]	viability, T/C [4] [%]	viability, T/C [5] [%]	viability, T/C [6] [%]	viability, T/C [7] [%]	viability, T/C [8] [%]	viability, T/C [9] [%]	viability, T/C [10] [%]	viability, T/C [11] [%]	viability, T/C [12] [%]	viability, T/C [13] [%]	viability, T/C [14] [%]	viability, T/C [15] [%]	other results
CCN1CCN(Cc2ccc(Nc3ncc(F)c(-c4cc(F)c5nc(C)n(C(C)C)c5c4)n3)nc2)CC1 + CCN1C(C(=O)NC23CCC(C(=O)O)(CC2)CC3)C(c2cccc(Cl)c2F)C2(C(=O)Nc3cc(Cl)ccc32)C12CCCCC2	> 1000	28.8	< 3.16	< 3.16	< 3.16	86.8	84.2	77.1	52.4	48.4	53.3	68	68.4	48.3	31.7	39.8	39	34.3	26.6	18.2	viability, T/C [16]: 15.4%; viability, T/C [17]: 17.9%; viability, T/C [18]: 21.3%; viability, T/C [19]: 9.27%; viability, T/C [20]: 8.09%; viability, T/C [21]: 6.59%; viability, T/C [22]: 7.13%; viability, T/C [23]: 8.2%; viability, T/C [24]: 11.3%; viability, T/C [25]: 3.59%; viability, T/C [26]: 3.67%; viability, T/C [27]: 2.51%; viability, T/C [28]: 3.55%; viability, T/C [29]: 4.83%; viability, T/C [30]: 8.39%
O=C(c1ccc(F)c(F)c1Nc1ccc(I)cc1F)N1CC(O)([C@@H]2CCCCN2)C1 + CCN1C(C(=O)NC23CCC(C(=O)O)(CC2)CC3)C(c2cccc(Cl)c2F)C2(C(=O)Nc3cc(Cl)ccc32)C12CCCCC2	227	47.8	< 3.16	< 3.16	< 3.16	98.2	85	70.5	64.5	50.3	16	67	61.4	55.3	41.3	28.4	8.51	37.2	29.1	17.3	viability, T/C [16]: 15.7%; viability, T/C [17]: 11.1%; viability, T/C [18]: 3.71%; viability, T/C [19]: 8.99%; viability, T/C [20]: 6.26%; viability, T/C [21]: 4.91%; viability, T/C [22]: 4.3%; viability, T/C [23]: 2.73%; viability, T/C [24]: 1.43%; viability, T/C [25]: 3.41%; viability, T/C [26]: 1.87%; viability, T/C [27]: 2.1%; viability, T/C [28]: 1.08%; viability, T/C [29]: 1.35%; viability, T/C [30]: 0.86%

Source: PubChem BioAssay AID1963424 (Molecular Pharmacology Branch, DTP, NCI, 2024)
